# According to patent US8309581B2, “Benzimidazole derivatives” (Hoffmann-La Roche Inc., priority 2009, dated 2012):
# pIC50: −log10 of the molar value.
# Biological target: T1, FXR ligand binding domain (Homo sapiens, UniProt Q96RI1)
# T1 construct: made in house; host or cells: E. coli BL21 (pLysS)
# T1 sequence (Q96RI1 193-472 isoform Q96RI1-2): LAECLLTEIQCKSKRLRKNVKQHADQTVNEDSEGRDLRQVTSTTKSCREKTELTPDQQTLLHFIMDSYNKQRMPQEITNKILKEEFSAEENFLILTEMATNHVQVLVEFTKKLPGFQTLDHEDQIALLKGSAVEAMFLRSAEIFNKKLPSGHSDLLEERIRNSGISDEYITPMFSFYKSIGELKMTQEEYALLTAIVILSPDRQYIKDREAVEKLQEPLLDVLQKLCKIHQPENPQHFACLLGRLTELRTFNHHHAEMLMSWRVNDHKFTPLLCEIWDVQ
# Assay: Radioligand Binding Assay (scintillation proximity radioligand displacement)
# Conditions: GST-FXR LBD fusion protein on SPA beads, test compound 6×10^−9 M to 2.5×10^−5 M
# Description: The following tests were carried out in order to determine the activity of the compounds of formula (I). Background information on the binding assay can be found in: Nichols J S et al. “Development of a scintillation proximity assay for peroxisome proliferator-activated receptor gamma ligand binding domain”, (1998) Anal. Biochem. 257: 112-119.
# Bacterial and mammalian expression vectors were constructed to produce glutathione-s-transferase (GST) and Gal4 DNA binding domain (GAL) proteins fused to the ligand binding domain (LBD) of human FXR (aa 193-473). To accomplish this, the portions of the sequences encoding the FXR LBD were amplified by polymerase chain reaction (PCR) from a full-length clone by PCR and then subcloned into the plasmid vectors. The final clone was verified by DNA sequence analysis.
# The induction, expression, and subsequent purification of GST-LBD fusion protein was performed in E. coli strain BL21 (pLysS) cells by standard methods (Current Protocols in Molecular Biology, Wiley Press, ed. Ausubel et al.).
# Radioligand Binding Assay
# Binding of test substances to the FXR ligand binding domain was assessed in a radioligand displacement assay. The assay was performed in a buffer consisting of 50 mM Hepes, pH 7.4, 10 mM NaCl, 5 mM MgCl2, 0.01% CHAPS. For each reaction well in a 96-well plate, 40 nM of GST-FXR LBD fusion protein was bound to […] glutathione ytrium silicate SPA beads (PharmaciaAmersham) in a final volume of […] by shaking. A radioligand (e.g., 20 nM of 2,N-dicyclohexyl-2-[2-(2,4 dimethoxy-phenyl)-benzoimidazol-1-yl]-acetamide) and test compounds were added, and scintillation proximity counting was performed. All binding assays were performed in 96-well plates and the amount of bound ligand was measured on a Packard TopCount using OptiPlates (Packard). Dose response curves were performed within a range of test compound concentrations from 6×10^−9 M to 2.5×10^−5 M and IC50 values were calculated.
row,SMILES,pIC50
1,"Fc1cc2nc(-c3cccnc3OCC3CC3)n(CC3CCCCC3)c2cc1F [Example 2, 1-Cyclohexylmethyl-2-(2-cyclopropylmethoxy-pyridin-3-yl)-5,6-difluoro-1H-benzoimidazole]",5.54
2,"Fc1cc2nc(-c3cccnc3OCc3ccccc3Cl)n(CC3CCCCC3)c2cc1F [Example 3, 2-[2-(2-Chloro-benzyloxy)-pyridin-3-yl]-1-cyclohexylmethyl-5,6-difluoro-1H-benzoimidazole]",6.15
3,"O=C(O)COc1ccc(COc2ncccc2-c2nc3cc(F)c(F)cc3n2CC2CCCCC2)cc1 [Example 5, {4-[3-(1-Cyclohexylmethyl-5,6-difluoro-1H-benzoimidazol-2-yl)-pyridin-2-yloxymethyl]-phenoxy}-acetic acid]",4.92
4,"Fc1cc2nc(-c3cccnc3OCC3CCCC3)n(Cc3ccccc3)c2cc1F [Example 7, 1-Benzyl-2-(2-cyclopentylmethoxy-pyridin-3-yl)-5,6-difluoro-1H-benzoimidazole]",5.42
5,"O=C(O)COc1ccc(COc2ncccc2-c2nc3cc(F)c(F)cc3n2Cc2ccccc2)cc1 [Example 10, {4-[3-(1-Benzyl-5,6-difluoro-1H-benzoimidazol-2-yl)-pyridin-2-yloxymethyl]-phenoxy}-acetic acid]",4.89
6,"O=C(O)COc1ccc(COc2ncccc2-c2nc3cc(F)c(F)cc3n2Cc2cccc(Cl)c2)cc1 [Example 15, (4-{3-[1-(3-Chloro-benzyl)-5,6-difluoro-1H-benzoimidazol-2-yl]-pyridin-2-yloxymethyl}-phenoxy)-acetic acid]",5.59
7,"Fc1cc2nc(-c3ccc(Cl)cc3OCc3ccccc3Cl)n(CC3CCCCC3)c2cc1F [Example 19, 2-[4-Chloro-2-(2-chloro-benzyloxy)-phenyl]-1-cyclohexylmethyl-5,6-difluoro-1H-benzoimidazole]",6.52
8,"Fc1cc2nc(-c3ccc(Cl)cc3OCC3CCCCC3)n(CC3CCCCC3)c2cc1F [Example 22, 2-(4-Chloro-2-cyclohexylmethoxy-phenyl)-1-cyclohexylmethyl-5,6-difluoro-1H-benzoimidazole]",6.70
9,"O=C(O)c1ccc(COc2cc(Cl)ccc2-c2nc3cc(F)c(F)cc3n2CC2CCCCC2)cc1 [Example 23, 4-[5-Chloro-2-(1-cyclohexylmethyl-5,6-difluoro-1H-benzoimidazol-2-yl)-phenoxymethyl]-benzoic acid]",6.70
10,"O=C(O)c1cccc(COc2cc(Cl)ccc2-c2nc3cc(F)c(F)cc3n2CC2CCCCC2)c1 [Example 24, 3-[5-Chloro-2-(1-cyclohexylmethyl-5,6-difluoro-1H-benzoimidazol-2-yl)-phenoxymethyl]-benzoic acid]",6.15
11,"O=C(O)COc1ccc(COc2cc(Cl)ccc2-c2nc3cc(F)c(F)cc3n2CC2CCCCC2)cc1 [Example 25, {4-[5-Chloro-2-(1-cyclohexylmethyl-5,6-difluoro-1H-benzoimidazol-2-yl)-phenoxymethyl]-phenoxy}-acetic acid]",7.00

# The remaining lines, values ahead:
row,pIC50,SMILES
1,6.70,"Fc1cc2nc(-c3cccnc3OCC3CCCC3)n(CC3CCCCC3)c2cc1F [Example 1, 1-Cyclohexylmethyl-2-(2-cyclopentylmethoxy-pyridin-3-yl)-5,6-difluoro-1H-benzoimidazole]"
2,5.24,"O=C(O)c1ccc(COc2ncccc2-c2nc3cc(F)c(F)cc3n2CC2CCCCC2)cc1 [Example 4, 4-[3-(1-Cyclohexylmethyl-5,6-difluoro-1H-benzoimidazol-2-yl)-pyridin-2-yloxymethyl]-benzoic acid]"
3,5.74,"Fc1cc2nc(-c3cccnc3OCc3ccccc3Cl)n(Cc3ccccc3)c2cc1F [Example 6, 1-Benzyl-2-[2-(2-chloro-benzyloxy)-pyridin-3-yl]-5,6-difluoro-1H-benzoimidazole]"
4,5.25,"Fc1cc2nc(-c3cccnc3OCC3CC3)n(Cc3ccccc3)c2cc1F [Example 8, 1-Benzyl-2-(2-cyclopropylmethoxy-pyridin-3-yl)-5,6-difluoro-1H-benzoimidazole]"
5,4.98,"O=C(O)c1ccc(COc2ncccc2-c2nc3cc(F)c(F)cc3n2Cc2ccccc2)cc1 [Example 9, 4-[3-(1-Benzyl-5,6-difluoro-1H-benzoimidazol-2-yl)-pyridin-2-yloxymethyl]-benzoic acid]"
6,6.10,"Fc1cc2nc(-c3cccnc3OCc3ccccc3Cl)n(Cc3cccc(Cl)c3)c2cc1F [Example 11, 1-(3-Chloro-benzyl)-2-[2-(2-chloro-benzyloxy)-pyridin-3-yl]-5,6-difluoro-1H-benzoimidazole]"
7,5.82,"Fc1cc2nc(-c3cccnc3OCC3CCCC3)n(Cc3cccc(Cl)c3)c2cc1F [Example 12, 1-(3-Chloro-benzyl)-2-(2-cyclopentylmethoxy-pyridin-3-yl)-5,6-difluoro-1H-benzoimidazole]"
8,5.44,"Fc1cc2nc(-c3cccnc3OCC3CC3)n(Cc3cccc(Cl)c3)c2cc1F [Example 13, 1-(3-Chloro-benzyl)-2-(2-cyclopropylmethoxy-pyridin-3-yl)-5,6-difluoro-1H-benzoimidazole]"
9,5.28,"O=C(O)c1ccc(COc2ncccc2-c2nc3cc(F)c(F)cc3n2Cc2cccc(Cl)c2)cc1 [Example 14, 4-{3-[1-(3-Chloro-benzyl)-5,6-difluoro-1H-benzoimidazol-2-yl]-pyridin-2-yloxymethyl}-benzoic acid]"
10,4.18,"O=C(O)CCc1ccc(Cn2c(-c3cccnc3OCC3CC3)nc3cc(F)c(F)cc32)cc1 [Example 16, 3-{4-[2-(2-Cyclopropylmethoxy-pyridin-3-yl)-5,6-difluoro-benzoimidazol-1-ylmethyl]-phenyl}-propionic acid]"
11,4.99,"O=C(O)CCc1ccc(Cn2c(-c3cccnc3OCc3ccccc3Cl)nc3cc(F)c(F)cc32)cc1 [Example 17, 3-(4-{2-[2-(2-Chloro-benzyloxy)-pyridin-3-yl]-5,6-difluoro-benzoimidazol-1-ylmethyl}-phenyl)-propionic acid]"
12,4.52,"O=C(O)CCc1ccc(Cn2c(-c3cccnc3OCC3CCCC3)nc3cc(F)c(F)cc32)cc1 [Example 18, 3-{4-[2-(2-Cyclopentylmethoxy-pyridin-3-yl)-5,6-difluoro-benzoimidazol-1-ylmethyl]-phenyl}-propionic acid]"
13,6.70,"Fc1cc2nc(-c3ccc(Cl)cc3OCC3CCCC3)n(CC3CCCCC3)c2cc1F [Example 20, 2-(4-Chloro-2-cyclopentylmethoxy-phenyl)-1-cyclohexylmethyl-5,6-difluoro-1H-benzoimidazole]"
14,6.52,"Fc1cc2nc(-c3ccc(Cl)cc3OCC3CC3)n(CC3CCCCC3)c2cc1F [Example 21, 2-(4-Chloro-2-cyclopropylmethoxy-phenyl)-1-cyclohexylmethyl-5,6-difluoro-1H-benzoimidazole]"
15,5.68,"O=C(O)CCCCCOc1cc(Cl)ccc1-c1nc2cc(F)c(F)cc2n1CC1CCCCC1 [Example 26, 6-[5-Chloro-2-(1-cyclohexylmethyl-5,6-difluoro-1H-benzoimidazol-2-yl)-phenoxy]-hexanoic acid]"
16,6.30,"O=C(O)c1ccc(CCOc2cc(Cl)ccc2-c2nc3cc(F)c(F)cc3n2CC2CCCCC2)cc1 [Example 27, 4-{2-[5-Chloro-2-(1-cyclohexylmethyl-5,6-difluoro-1H-benzoimidazol-2-yl)-phenoxy]-ethyl}-benzoic acid]"
